≈ marks a conversion by molar mass, not a printed value.
Assays:
[1] = tested on: Escherichia coli; assay: Antibacterial activity against Escherichia coli UTI 189 assessed as bacterial growth inhibition measured after 20 hrs by microdilution assay; type: functional
[2] = tested on: Escherichia coli; assay: Antibacterial activity against Escherichia coli CFT 073 assessed as bacterial growth inhibition measured after 20 hrs by microdilution assay; type: functional
[3] = tested on: Staphylococcus aureus; assay: Antibacterial activity against methicillin sensitive Staphylococcus aureus clinical isolate 18-3 assessed as bacterial growth inhibition measured after 18 to 20 hrs by broth microdilution assay; type: functional; conditions: time 18-20 hrs
[4] = tested on: Staphylococcus aureus; assay: Antibacterial activity against clinical isolate methicillin resistant Staphylococcus aureus ATCC 33591 assessed as bacterial growth inhibition measured after 18 to 20 hrs by broth microdilution assay; type: functional; conditions: time 18-20 hrs
[5] = tested on: Staphylococcus aureus; assay: Antibacterial activity against methicillin resistant Staphylococcus aureus clinical isolate 18-2 assessed as bacterial growth inhibition measured after 18 to 20 hrs by broth microdilution assay; type: functional; conditions: time 18-20 hrs
[6] = tested on: Staphylococcus aureus; assay: Antibacterial activity against clinical isolate methicillin resistant Staphylococcus aureus ATCC 43300 assessed as bacterial growth inhibition measured after 18 to 20 hrs by broth microdilution assay; type: functional; conditions: time 18-20 hrs
[7] = tested on: Staphylococcus aureus; assay: Antibacterial activity against clinical isolate methicillin sensitive Staphylococcus aureus ATCC 29213 assessed as bacterial growth inhibition measured after 18 to 20 hrs by broth microdilution assay; type: functional; conditions: time 18-20 hrs
[8] = tested on: Staphylococcus aureus; assay: Antibacterial activity against clinical isolate vancomycin intermediate resistant Staphylococcus aureus HIP 5827 assessed as bacterial growth inhibition measured after 18 to 20 hrs by broth microdilution assay; type: functional; conditions: time 18-20 hrs
[9] = Microsomal stability in mouse liver microsomes assessed as half life measured upto 60 mins in presence of NADPH by HPLC analysis; type: ADME, Microsome
[10] = Microsomal stability in mouse plasma assessed as half life measured upto 60 mins in presence of NADPH by HPLC analysis; type: ADME, cell-free
[11] = tested on: Staphylococcus aureus; assay: Antibacterial activity against clinical isolate vancomycin intermediate resistant Staphylococcus aureus ATCC 700699 assessed as bacterial growth inhibition measured after 18 to 20 hrs by broth microdilution assay; type: functional; conditions: time 18-20 hrs
[12] = tested on: Staphylococcus aureus; assay: Antibacterial activity against methicillin sensitive Staphylococcus aureus clinical isolate 15 assessed as bacterial growth inhibition measured after 18 to 20 hrs by broth microdilution assay; type: functional; conditions: time 18-20 hrs
[13] = tested on: Staphylococcus aureus; assay: Antibacterial activity against clinical isolate methicillin sensitive Staphylococcus aureus BAA 976 assessed as bacterial growth inhibition measured after 18 to 20 hrs by broth microdilution assay; type: functional; conditions: time 18-20 hrs
[14] = tested on: Staphylococcus aureus; assay: Antibacterial activity against clinical isolate methicillin sensitive Staphylococcus aureus BAA 1708 assessed as bacterial growth inhibition measured after 18 to 20 hrs by broth microdilution assay; type: functional; conditions: time 18-20 hrs
[15] = tested on: Staphylococcus aureus; assay: Antibacterial activity against clinical isolate vancomycin intermediate resistant Staphylococcus aureus HIP 5836 assessed as bacterial growth inhibition measured after 18 to 20 hrs by broth microdilution assay; type: functional; conditions: time 18-20 hrs
[16] = tested on: Staphylococcus aureus; assay: Potency index, ratio of ciprofloxacin MIC to test compound MIC for antimicrobial activity against Staphylococcus aureus ATCC 25923 assessed as bacterial growth inhibition measured after 24 hrs by agar dilution assay; type: functional
[17] = tested on: Staphylococcus aureus; assay: Antibacterial activity against Staphylococcus aureus ATCC 25923 assessed as bacterial growth inhibition measured after 16 hrs by broth microdilution assay; type: functional
[18] = tested on: Staphylococcus aureus; assay: Antibacterial activity against Staphylococcus aureus ATCC 25923 assessed as bacterial growth inhibition measured after 24 hrs by agar dilution assay; type: functional
[19] = tested on: Pseudomonas aeruginosa; assay: Antibacterial activity against imipenem resistant Pseudomonas aeruginosa VIM-2 assessed as bacterial growth inhibition measured after 24 hrs by agar dilution assay; type: functional
[20] = tested on: Escherichia coli; assay: Antibacterial activity against Escherichia coli ATCC 25922 assessed as bacterial growth inhibition measured after 24 hrs by agar dilution assay; type: functional
[21] = tested on: Enterobacter cloacae; assay: Antibacterial activity against fosfomycin resistant Enterobacter cloacae assessed as bacterial growth inhibition measured after 24 hrs by agar dilution assay; type: functional
[22] = tested on: Enterococcus faecalis; assay: Antibacterial activity Enterococcus faecalis assessed as bacterial growth inhibition measured after 24 hrs by broth microdilution assay; type: functional
[23] = tested on: Staphylococcus aureus; assay: Antibacterial activity Staphylococcus aureus assessed as bacterial growth inhibition measured after 24 hrs by broth microdilution assay; type: functional
[24] = tested on: Escherichia coli; assay: Antibacterial activity Escherichia coli assessed as bacterial growth inhibition measured after 24 hrs by broth microdilution assay; type: functional
[25] = tested on: Pseudomonas aeruginosa; assay: Antibacterial activity Pseudomonas aeruginosa assessed as bacterial growth inhibition measured after 24 hrs by broth microdilution assay; type: functional
[26] = tested on: Pseudomonas aeruginosa; assay: Antibacterial activity against clinical isolate multi drug resistant Pseudomonas aeruginosa PA259-96918 assessed as bacterial growth inhibition measured after 18 hrs by broth microdilution assay; type: functional
[27] = tested on: Mycobacterium tuberculosis; assay: Antimycobacterial activity against extensive drug Mycobacterium tuberculosis assessed as bacterial growth inhibition by LJ slant assay; type: functional
[28] = tested on: Escherichia coli; assay: Antibacterial activity against multi drug resistant Escherichia coli clinical isolate 107115 assessed as bacterial growth inhibition measured after 18 hrs by broth microdilution assay; type: functional
[29] = tested on: Pseudomonas aeruginosa; assay: Antibacterial activity against clinical isolate multi drug resistant Pseudomonas aeruginosa PA264-104354 assessed as bacterial growth inhibition measured after 18 hrs by broth microdilution assay; type: functional
[30] = tested on: Pseudomonas aeruginosa; assay: Antibacterial activity against clinical isolate multi drug resistant Pseudomonas aeruginosa PA262-101856 assessed as bacterial growth inhibition measured after 18 hrs by broth microdilution assay; type: functional
[31] = tested on: Enterobacter cloacae; assay: Antibacterial activity against multi drug resistant Enterobacter cloacae clinical isolate 121187 assessed as bacterial growth inhibition measured after 18 hrs by broth microdilution assay; type: functional
[32] = tested on: Acinetobacter baumannii; assay: Antibacterial activity against clinical isolate multi drug resistant Acinetobacter baumannii AB031 assessed as bacterial growth inhibition measured after 18 hrs by broth microdilution assay; type: functional
[33] = tested on: Enterobacter cloacae; assay: Antibacterial activity against multi drug resistant Enterobacter cloacae clinical isolate 117029 assessed as bacterial growth inhibition measured after 18 hrs by broth microdilution assay; type: functional
[34] = tested on: Enterobacter cloacae; assay: Antibacterial activity against multi drug resistant Enterobacter cloacae clinical isolate 118564 assessed as bacterial growth inhibition measured after 18 hrs by broth microdilution assay; type: functional
[35] = tested on: Pseudomonas aeruginosa; assay: Antibacterial activity against clinical isolate multi drug resistant Pseudomonas aeruginosa PA260-97103 assessed as bacterial growth inhibition measured after 18 hrs by broth microdilution assay; type: functional
[36] = tested on: Klebsiella pneumoniae; assay: Antibacterial activity against multi drug resistant Klebsiella pneumoniae clinical isolate 113254 assessed as bacterial growth inhibition measured after 18 hrs by broth microdilution assay; type: functional
[37] = tested on: Mycobacterium tuberculosis; assay: Antimycobacterial activity against multidrug Mycobacterium tuberculosis assessed as bacterial growth inhibition by LJ slant assay; type: functional
[38] = tested on: Pseudomonas aeruginosa; assay: Antibacterial activity against multi drug resistant Pseudomonas aeruginosa clinical isolate 100036 assessed as bacterial growth inhibition measured after 18 hrs by broth microdilution assay; type: functional
[39] = tested on: Escherichia coli; assay: Antibacterial activity against multi drug resistant Escherichia coli clinical isolate 94393 assessed as bacterial growth inhibition measured after 18 hrs by broth microdilution assay; type: functional
[40] = tested on: Klebsiella pneumoniae; assay: Antibacterial activity against multi drug resistant Klebsiella pneumoniae clinical isolate 113250 assessed as bacterial growth inhibition measured after 18 hrs by broth microdilution assay; type: functional
[41] = tested on: Klebsiella pneumoniae; assay: Antibacterial activity against multi drug resistant Klebsiella pneumoniae clinical isolate 116381 assessed as bacterial growth inhibition measured after 18 hrs by broth microdilution assay; type: functional
[42] = tested on: Acinetobacter baumannii; assay: Antibacterial activity against clinical isolate multi drug resistant Acinetobacter baumannii AB027 assessed as bacterial growth inhibition measured after 18 hrs by broth microdilution assay; type: functional
[43] = tested on: Acinetobacter baumannii; assay: Antibacterial activity against multi drug resistant Acinetobacter baumannii clinical isolate 92247 assessed as bacterial growth inhibition measured after 18 hrs by broth microdilution assay; type: functional
[44] = tested on: Acinetobacter baumannii; assay: Antibacterial activity against clinical isolate multi drug resistant Acinetobacter baumannii LAC-4 assessed as bacterial growth inhibition measured after 18 hrs by broth microdilution assay; type: functional
[45] = tested on: Escherichia coli; assay: Antibacterial activity against multi drug resistant Escherichia coli clinical isolate 94474 assessed as bacterial growth inhibition measured after 18 hrs by broth microdilution assay; type: functional

O=C(NCCCCCC(=O)N1CCN(c2cc3c(cc2F)c(=O)c(C(=O)O)cn3C2CC2)CC1)c1cc(O)c(O)c(C(=O)N[C@H]2COC(=O)[C@@H](NC(=O)c3cccc(O)c3O)COC(=O)[C@@H](NC(=O)c3cccc(O)c3O)COC2=O)c1
MIC [1]: 0.1 µg/mL (≈ 0.0877 µM)
MIC [2]: 0.1 µg/mL (≈ 0.0877 µM)

CCCCCc1nc2ccccc2c(=O)n1NC(=O)c1c(O)c2ccccc2n(CC)c1=O
MIC [3]: 4 µg/mL (≈ 8.96 µM)
MIC [4]: 4 µg/mL (≈ 8.96 µM)
MIC [5]: 4 µg/mL (≈ 8.96 µM)
MIC [6]: 4 µg/mL (≈ 8.96 µM)
MIC [7]: 4 µg/mL (≈ 8.96 µM)
MIC [8]: 4 µg/mL (≈ 8.96 µM)
half-life [9]: > 373 min
half-life [10]: 24.5 min
MIC [11]: 4 µg/mL (≈ 8.96 µM)
MIC [12]: 4 µg/mL (≈ 8.96 µM)
MIC [13]: 4 µg/mL (≈ 8.96 µM)
MIC [14]: 4 µg/mL (≈ 8.96 µM)
MIC [15]: 4 µg/mL (≈ 8.96 µM)

COc1cccc2ccc(C(=O)N3CCN(c4cc5c(cc4F)c(=O)c(C(=O)O)cn5C4CC4)CC3)nc12
Ratio [16]: 2
MIC [17]: 0.2 µg/mL (≈ 0.387 µM)

CCOP(=O)(OCC)C(Nc1ncc(-c2cc3ccccc3oc2=O)s1)c1cc2ccccc2[nH]c1=O (stereo not given)
MIC [18]: 0.25 µg/mL (≈ 0.465 µM)
MIC [19]: 0.25 µg/mL (≈ 0.465 µM)
MIC [20]: 0.25 µg/mL (≈ 0.465 µM)
MIC [21]: 0.25 µg/mL (≈ 0.465 µM)

C[C@H](NC(=O)c1cc(=O)[nH]c2ccccc12)C(=O)O
MIC [22]: 620 µg/mL (≈ 2380 µM)
MIC [23]: 620 µg/mL (≈ 2380 µM)
MIC [24]: 620 µg/mL (≈ 2380 µM)
MIC [25]: 620 µg/mL (≈ 2380 µM)

NC[C@@H]1O[C@@H](O[C@@H]2[C@@H](OCCCCCCCN3CCN(c4cc5c(cc4F)c(=O)c(C(=O)O)cn5C4CC4)CC3)[C@H](O[C@@H]3O[C@@H](CO)[C@H](O)[C@@H](N)[C@@H]3O)[C@@H](N)C[C@H]2N)[C@@H](N)C[C@H]1O
MIC [26]: ≥ 16 µg/mL
MIC [27]: ≥ 16 µg/mL
MIC [28]: ≥ 16 µg/mL
MIC [29]: ≥ 16 µg/mL
MIC [30]: ≥ 16 µg/mL
MIC [31]: ≥ 16 µg/mL
MIC [32]: ≥ 16 µg/mL
MIC [33]: ≥ 16 µg/mL
MIC [34]: ≥ 16 µg/mL
MIC [35]: ≥ 16 µg/mL
MIC [36]: ≥ 16 µg/mL
MIC [37]: ≥ 16 µg/mL
MIC [38]: ≥ 16 µg/mL
MIC [39]: ≥ 16 µg/mL
MIC [40]: ≥ 16 µg/mL
MIC [41]: ≥ 16 µg/mL
MIC [42]: ≥ 16 µg/mL
MIC [43]: ≥ 16 µg/mL
MIC [44]: ≥ 16 µg/mL
MIC [45]: ≥ 16 µg/mL

Reference: ChEMBL document CHEMBL5360532, “Current scenario of quinolone hybrids with potential antibacterial activity against ESKAPE pathogens” (Eur J Med Chem, 2023)
